Experimental data as given in patent publication US20250188420A1, “MATURING AGENT HAVING BOTH OF ALK5 INHIBITORY ACTIVITY AND CDK8/19 INHIBITORY ACTIVITY” (ORIZURU THERAPEUTICS, INC., priority 2022, published 2025).
Read-outs that look alike come from different tables or passages of the source.

Key:
[1] = test system: insulin-positive cell population obtained from human iPS cells; assay: single-cell RNA-seq analysis of insulin-positive cell populations; format: cell-based; conditions: for typical endocrine cells (clusters #0, #1, #2, #3, and #6) in the insulin-positive cell population: 10 μM ALK5iII, 3 μM SB431542, 0.3 μM Senexin B or combination; for percentage of each cluster (#1, #3, #6, and #12) in insulin-positive and NKX6.1-positive cell subpopulation: versus population produced using ALK5iII, FIG. 5
Description: Subsequently, in order to compare cell composition among the respective insulin-positive cell populations produced using the inhibitors (1) to (4), single-cell RNA-seq (scRNA-seq) analysis was conducted. A library for scRNA-seq analysis was prepared using Chromium Controller and a preparation kit (Chromium Next GEM Single Cell 3′ Kits v3.1) from 10× Genomics, Inc. and sequenced using Hi-seq platform from Illumina, Inc. Data on the obtained UMI counts was analyzed using Cell Ranger and R Package Seurat from 10× Genomics, Inc. and subjected to dimensionality reduction and visualization using PCA and UMAP. Cell clustering based on the results of dimensionality reduction was carried out by clustering based on the shared nearest neighbor method of Seurat.
As a result, cell clusters #1 to #17 were identified in the respective insulin-positive cell populations produced using the inhibitors (1) to (4). […] The cells of clusters #3 and #6 had features specific for enterochromaffin cells. […] These cells can thereby be discriminated from the cells of cluster #1 adjacent thereto and are therefore considered to be relatively immature β cells. Some of the β cells might be integrated, together with α cells, δ cells, and γ cells, into cluster #0.

[2] = test system: CDK8 and CDK19 (CDK8/19); assay: binding evaluation test of kinase inhibitors against 11 kinases (FIG. 3); conditions: compared among ALK5iII and nonmutagenic ALK5 inhibitors
Description: Next, the nonmutagenic ALK5 inhibitors (SB431542, SB525334, IN1130, and EW-7197) were also evaluated for their inhibitory activity against these 11 kinases.

[3] = test system: Salmonella typhimurium TA100, TA1535, TA98, and TA1537 strains and an Escherichia coli WP2uvrA strain; assay: Ames test (mutagenicity evaluation); conditions: no S9 fraction; FIG. 1
Description: (§1) The Ames test was conducted according to a conventionally known approach. That is, each bacterial strain of Salmonella typhimurium TA100, TA1535, TA98, and TA1537 strains and an Escherichia coli WP2uvrA strain was mixed with each compound with seven concentrations (78.1 to 5,000 μg/plate), preincubated in vitro for 20 minutes, and then inoculated, together with added semifluid agar, to a minimal glucose agar medium, followed by solidification and incubation at 37° C. for 48 hours. This experiment involved no rat liver S9 fraction because the experiment was aimed at evaluating the mutagenicity of each compound in a cell culture system, not evaluating metabolites obtained after metabolisms by hepatic enzymes. […] Positivity was determined when an average number of revertant colonies in any of the bacterial strains was at least twice or more the average number of the negative control.

[4] = test system: pancreatic progenitor cell population obtained from human iPS cells (Ff-I14-s04 line); assay: induction of differentiation of pancreatic progenitor cell population into insulin-positive cell population, flow cytometry; format: cell-based; conditions: Example 3; 3 μM SB431542, 0.3 μM Senexin B or both; versus 10 μM ALK5iII, FIG. 4B
[5] = test system: pancreatic progenitor cell population obtained from human iPS cells (Ff-I14-s04 line); assay: as above; format: cell-based
Description: In this testing method, the induction of differentiation of human iPS cells (Ff-I14-s04 line) into a pancreatic progenitor cell population was carried out according to the above steps 1)-4), the previous report (Stem Cell Research (2015) 14, 185-197), etc. The induction of differentiation into insulin-positive cells was carried out according to the above step 5), 6), etc.
The number of insulin-positive and NKX6.1-positive cells and the number of CHGA-positive and PDX1-positive cells in the insulin-positive cell population obtained by the above method was counted by flow cytometry to determine the respective proportions of the cells in each cell population.
The number of insulin-positive and NKX6.1-positive cells in the insulin-positive cell population obtained by the above method was counted by flow cytometry to determine the respective proportions of the cells in each cell population.

[6] = test system: Salmonella typhimurium TA1537
Description: as §1

[7] = target: T1, ALK5 (Homo sapiens, UniProt P36897); assay: ALK5-inhibiting activity (FIG. 1); format: biochemical
T1 sequence (P36897 34-503): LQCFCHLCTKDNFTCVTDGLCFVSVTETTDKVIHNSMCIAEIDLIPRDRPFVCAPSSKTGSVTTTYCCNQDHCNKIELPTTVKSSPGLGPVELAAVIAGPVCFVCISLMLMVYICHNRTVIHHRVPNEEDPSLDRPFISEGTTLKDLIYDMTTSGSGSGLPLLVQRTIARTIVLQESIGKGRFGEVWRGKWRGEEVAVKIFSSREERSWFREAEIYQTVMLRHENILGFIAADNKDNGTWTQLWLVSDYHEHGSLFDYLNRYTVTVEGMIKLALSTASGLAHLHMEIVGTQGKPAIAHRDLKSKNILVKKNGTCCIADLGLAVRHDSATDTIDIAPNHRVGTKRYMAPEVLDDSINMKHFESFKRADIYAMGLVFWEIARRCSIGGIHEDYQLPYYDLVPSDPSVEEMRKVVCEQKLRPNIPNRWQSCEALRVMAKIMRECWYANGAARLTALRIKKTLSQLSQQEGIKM

[8] = target: CDK8 (Homo sapiens, UniProt P49336); conditions: estimated from inhibition at 0.1 μM and 1 μM
[9] = test system: 11 kinases including CDK8 and CDK19; conditions: 11 of approximately 350 recombinant kinases
[10] = target: RIPK2 (Homo sapiens, UniProt O43353); conditions: estimated from inhibition at 0.1 μM and 1 μM
[11] = target: TGFBR2 (Homo sapiens, UniProt P37173); conditions: estimated from inhibition at 0.1 μM and 1 μM
[12] = target: TNIK (Homo sapiens, UniProt Q9UKE5); conditions: estimated from inhibition at 0.1 μM and 1 μM
[13] = target: CDK19 (Homo sapiens, UniProt Q9BWU1); conditions: estimated from inhibition at 0.1 μM and 1 μM
[14] = Example 2, SB525334 10 μM, SB431542 10 μM, IN1130 1 μM, EW-7197 1 μM, versus control medium (−)
[15] = Example 3, 3 μM SB431542, 0.3 μM Senexin B or both, versus 10 μM ALK5iII, FIG. 4A

RIPK2, sequence (O43353 whole entry, species assumed): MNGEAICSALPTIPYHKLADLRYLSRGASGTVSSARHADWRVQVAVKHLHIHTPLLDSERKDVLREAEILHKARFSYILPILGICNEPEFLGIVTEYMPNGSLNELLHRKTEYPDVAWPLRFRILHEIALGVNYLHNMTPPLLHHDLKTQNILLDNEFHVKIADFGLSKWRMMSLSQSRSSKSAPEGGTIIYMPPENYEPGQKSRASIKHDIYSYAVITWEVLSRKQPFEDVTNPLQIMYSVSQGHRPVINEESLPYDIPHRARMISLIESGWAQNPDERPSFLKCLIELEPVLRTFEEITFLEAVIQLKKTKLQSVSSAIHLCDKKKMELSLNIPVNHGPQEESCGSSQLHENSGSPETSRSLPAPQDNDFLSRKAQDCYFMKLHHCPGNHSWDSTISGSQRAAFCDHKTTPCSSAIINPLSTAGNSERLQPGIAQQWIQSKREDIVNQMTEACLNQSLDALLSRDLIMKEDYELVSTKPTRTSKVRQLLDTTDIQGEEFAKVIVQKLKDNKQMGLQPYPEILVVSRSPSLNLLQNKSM
TGFBR2, sequence (P37173 23-567, species assumed): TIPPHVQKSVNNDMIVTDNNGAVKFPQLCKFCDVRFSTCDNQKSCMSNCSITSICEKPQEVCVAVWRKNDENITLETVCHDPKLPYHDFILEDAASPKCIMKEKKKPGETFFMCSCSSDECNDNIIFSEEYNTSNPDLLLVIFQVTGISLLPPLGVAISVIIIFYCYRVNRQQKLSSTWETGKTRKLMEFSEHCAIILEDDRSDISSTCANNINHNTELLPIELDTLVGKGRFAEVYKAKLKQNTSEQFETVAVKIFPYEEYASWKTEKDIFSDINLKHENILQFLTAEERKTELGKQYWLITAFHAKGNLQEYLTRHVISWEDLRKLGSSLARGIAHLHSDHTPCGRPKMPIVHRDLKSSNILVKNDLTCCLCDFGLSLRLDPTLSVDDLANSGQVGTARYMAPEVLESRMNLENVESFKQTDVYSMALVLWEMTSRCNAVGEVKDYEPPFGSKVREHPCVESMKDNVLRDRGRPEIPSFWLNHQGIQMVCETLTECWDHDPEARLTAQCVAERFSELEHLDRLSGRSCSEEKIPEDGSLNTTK
TNIK, sequence (Q9UKE5 whole entry, species assumed): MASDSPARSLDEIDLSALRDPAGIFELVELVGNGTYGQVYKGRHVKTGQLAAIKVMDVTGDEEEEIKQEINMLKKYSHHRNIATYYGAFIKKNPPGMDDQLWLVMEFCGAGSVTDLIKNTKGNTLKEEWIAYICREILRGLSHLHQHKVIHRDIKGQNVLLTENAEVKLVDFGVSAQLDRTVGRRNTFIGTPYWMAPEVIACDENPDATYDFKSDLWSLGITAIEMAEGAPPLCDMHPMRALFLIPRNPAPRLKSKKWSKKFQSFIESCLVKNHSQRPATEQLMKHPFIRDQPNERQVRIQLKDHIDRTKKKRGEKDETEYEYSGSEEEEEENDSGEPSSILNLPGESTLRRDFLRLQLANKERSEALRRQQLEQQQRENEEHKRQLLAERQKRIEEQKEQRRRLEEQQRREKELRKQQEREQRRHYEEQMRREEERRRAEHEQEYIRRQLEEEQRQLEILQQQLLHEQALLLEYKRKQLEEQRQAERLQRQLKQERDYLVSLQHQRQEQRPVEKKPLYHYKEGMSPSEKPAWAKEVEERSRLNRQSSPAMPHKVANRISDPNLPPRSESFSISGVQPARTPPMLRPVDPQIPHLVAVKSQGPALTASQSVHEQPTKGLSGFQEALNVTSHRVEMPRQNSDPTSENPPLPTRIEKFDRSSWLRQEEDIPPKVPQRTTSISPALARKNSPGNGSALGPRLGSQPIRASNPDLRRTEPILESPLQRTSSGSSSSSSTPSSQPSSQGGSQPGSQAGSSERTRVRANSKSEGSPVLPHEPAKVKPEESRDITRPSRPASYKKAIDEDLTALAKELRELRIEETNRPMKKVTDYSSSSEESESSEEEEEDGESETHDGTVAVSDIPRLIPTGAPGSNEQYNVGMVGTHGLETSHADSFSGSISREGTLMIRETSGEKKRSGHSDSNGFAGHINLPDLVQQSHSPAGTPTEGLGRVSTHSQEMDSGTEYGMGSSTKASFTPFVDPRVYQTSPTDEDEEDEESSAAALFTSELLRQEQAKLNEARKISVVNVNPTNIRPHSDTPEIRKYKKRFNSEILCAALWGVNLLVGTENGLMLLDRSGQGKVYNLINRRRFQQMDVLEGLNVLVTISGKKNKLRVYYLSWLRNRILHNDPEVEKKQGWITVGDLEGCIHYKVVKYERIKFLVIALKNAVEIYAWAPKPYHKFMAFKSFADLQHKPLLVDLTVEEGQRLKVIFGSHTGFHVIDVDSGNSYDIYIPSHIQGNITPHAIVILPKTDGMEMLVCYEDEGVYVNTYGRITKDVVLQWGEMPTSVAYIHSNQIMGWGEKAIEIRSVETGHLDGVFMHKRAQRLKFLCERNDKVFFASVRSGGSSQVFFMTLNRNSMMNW
CDK19, sequence (Q9BWU1 whole entry, species assumed): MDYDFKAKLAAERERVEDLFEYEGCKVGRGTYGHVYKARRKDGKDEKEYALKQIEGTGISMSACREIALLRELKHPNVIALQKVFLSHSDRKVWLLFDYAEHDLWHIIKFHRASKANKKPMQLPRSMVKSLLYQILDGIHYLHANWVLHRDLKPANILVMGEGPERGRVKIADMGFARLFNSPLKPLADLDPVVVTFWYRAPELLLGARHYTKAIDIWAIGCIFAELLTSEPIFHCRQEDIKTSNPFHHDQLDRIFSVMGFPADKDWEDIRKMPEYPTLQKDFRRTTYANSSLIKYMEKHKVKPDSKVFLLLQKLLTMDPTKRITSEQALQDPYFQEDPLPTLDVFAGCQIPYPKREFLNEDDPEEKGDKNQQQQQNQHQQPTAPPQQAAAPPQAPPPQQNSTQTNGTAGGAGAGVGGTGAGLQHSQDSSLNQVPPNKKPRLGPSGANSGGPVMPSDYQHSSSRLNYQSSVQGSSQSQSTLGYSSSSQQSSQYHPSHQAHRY
CDK19, sequence (P24863 whole entry partner, species assumed): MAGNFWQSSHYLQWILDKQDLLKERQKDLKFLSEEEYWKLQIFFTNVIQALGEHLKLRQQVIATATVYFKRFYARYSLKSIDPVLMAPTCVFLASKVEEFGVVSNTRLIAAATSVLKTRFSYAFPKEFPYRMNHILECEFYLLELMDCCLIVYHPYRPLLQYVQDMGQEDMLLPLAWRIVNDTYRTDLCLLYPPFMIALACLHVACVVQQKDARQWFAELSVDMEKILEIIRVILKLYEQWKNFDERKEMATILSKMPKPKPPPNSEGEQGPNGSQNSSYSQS
CDK8, sequence (P49336 whole entry, species assumed): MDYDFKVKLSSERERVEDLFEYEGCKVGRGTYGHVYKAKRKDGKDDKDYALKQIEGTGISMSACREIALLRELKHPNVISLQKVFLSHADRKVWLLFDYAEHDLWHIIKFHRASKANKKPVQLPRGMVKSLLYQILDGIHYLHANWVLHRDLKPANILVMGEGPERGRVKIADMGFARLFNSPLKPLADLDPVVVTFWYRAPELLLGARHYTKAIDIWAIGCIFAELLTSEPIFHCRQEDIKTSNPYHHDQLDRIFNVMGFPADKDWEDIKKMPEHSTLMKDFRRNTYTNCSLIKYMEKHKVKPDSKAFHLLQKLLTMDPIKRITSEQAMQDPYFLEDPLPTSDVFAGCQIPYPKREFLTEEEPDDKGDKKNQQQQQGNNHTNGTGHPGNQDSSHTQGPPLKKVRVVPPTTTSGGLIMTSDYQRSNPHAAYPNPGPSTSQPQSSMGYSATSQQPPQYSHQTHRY
CDK8, sequence (P24863 whole entry partner, species assumed): as the sequence (P24863 whole entry partner, species assumed) above

## NC(=O)c1ccc(-c2nc(-c3ccc4c(c3)OCO4)c(-c3ccccn3)[nH]2)cc1 [SB431542, 4-[4-(1,3-Benzodioxol-5-yl)-5-(2-pyridinyl)-1H-imidazol-2-yl]-benzamide]
[1]; scRNA-seq
  clusters #5, #9, #10, #12, and #13: specialized
  typical endocrine cells (clusters #0, #1, #2, #3, and #6) in the insulin-positive cell population: not found
[1]
  percentage of each cluster (#1, #3, #6, and #12) in insulin-positive and NKX6.1-positive cell subpopulation: different
[2]
  inhibitory activity against CDK8 and CDK19 (CDK8/19): unique to ALK5iII
[3]
  mutagenicity / Ames test determination: no mutagenicity
[4]
  total cell yield: lower values
[5]; [14]
  proportion of CHGA-positive and PDX1-positive cells: equivalent to the control
  proportion of insulin-positive and NKX6.1-positive cells: equivalent to the control
[5]; [15]
  proportion of insulin-positive and NKX6.1-positive cells: lower values

## COc1ccc2nc3cc(Cl)ccc3c(NCCCNCCCl)c2c1 [ICR 191]
[6]; TA1537, -S9, positive control, 1.0 μg (quinoxaline analog experiment)
  # of colony: 1804

## c1cncc(-c2n[nH]cc2-c2cnc3ccccc3n2)c1 [2-(3-(pyridin-3-yl)-1H-pyrazol-4-yl)quinoxaline]
[6]; TA1537, -S9, 78.1 μg/plate
  # of colony: 5
[6]; TA1537, -S9, 156 μg/plate
  # of colony: 9
[6]; TA1537, -S9, 313 μg/plate
  # of colony: 21
[6]; TA1537, -S9, 625 μg/plate
  # of colony: 45
[6]; TA1537, -S9, 1250 μg/plate
  # of colony: 82
[6]; TA1537, -S9, 2500 μg/plate
  # of colony: 128
[6]; TA1537, -S9, 5000 μg/plate
  # of colony: 194
[7]
  ALK5-inhibiting activity: no ALK5-inhibiting activity
[3]
  mutagenicity / Ames test determination: positive

## CN1CCN(C(=O)c2ccc3cc(CCNc4ncnc5ccc(C#N)cc45)ccc3c2)CC1 [Senexin B, 4-((2-(6-(4-Methylpiperazine-1-carbonyl)naphthalen-2-yl)ethyl)amino)quinazoline-6-carbonitrile]
[1]; scRNA-seq
  typical endocrine cells (clusters #0, #1, #2, #3, and #6) in the insulin-positive cell population: found with almost no exception
[1]
  percentage of each cluster (#1, #3, #6, and #12) in insulin-positive and NKX6.1-positive cell subpopulation: different
[4]
  total cell yield: lower value
[5]; [15]
  proportion of insulin-positive and NKX6.1-positive cells: higher percentage

## Cc1cccc(-c2nc(C(C)(C)C)[nH]c2-c2ccc3nccnc3c2)n1 [SB525334, 6-[2-tert-Butyl-5-(6-methylpyridin-2-yl)-1H-imidazol-4-yl]quinoxaline]
[2]
  inhibitory activity against CDK8 and CDK19 (CDK8/19): unique to ALK5iII
[3]
  mutagenicity / Ames test determination: no mutagenicity
[5]; [14]
  proportion of CHGA-positive and PDX1-positive cells: equivalent to the control
  proportion of insulin-positive and NKX6.1-positive cells: equivalent to the control

## Cc1cccc(-c2nc(Cc3cccc(C(N)=O)c3)[nH]c2-c2ccc3nccnc3c2)n1 [IN1130, 3-[[5-(6-Methyl-2-pyridinyl)-4-(6-quinoxalinyl)-1H-imidazol-2-yl]methyl]benzamide]
[2]
  inhibitory activity against CDK8 and CDK19 (CDK8/19): unique to ALK5iII
[5]; [14]
  proportion of CHGA-positive and PDX1-positive cells: equivalent to the control
  proportion of insulin-positive and NKX6.1-positive cells: equivalent to the control

## Cc1cccc(-c2n[nH]cc2-c2ccc3ncccc3n2)n1 [ALK5iII, 2-(3-(6-methylpyridin-2-yl)-1H-pyrazol-4-yl)-1,5-naphthyridine]
[6]
  Ames test determination: positive
[8]
  Estimate pIC50 value: 6.80 ± 0.40
[1]; scRNA-seq
  typical endocrine cells (clusters #0, #1, #2, #3, and #6) in the insulin-positive cell population: found with almost no exception
[2]
  inhibitory activity against CDK8 and CDK19 (CDK8/19): unique to ALK5iII
[9]
  estimate pIC50 value against 11 kinases: more than 6
[10]
  Estimate pIC50 value: 6.82 ± 0.05
[11]
  Estimate pIC50 value: 6.97 ± 0.12
[12]
  Estimate pIC50 value: 6.18 ± 0.14
[13]
  Estimate pIC50 value: 7.18 ± 0.50

## Cl.Nc1c2ccccc2nc2ccccc12.O [Compound 9-AA, 9-aminoacridine hydrochloride monohydrate]
[6]; TA1537, -S9, positive control, 80 μg (ALK5 i II experiment)
  # of colony: 169

## Cc1cccc(-c2[nH]c(CNc3ccccc3F)nc2-c2ccc3ncnn3c2)n1 [EW-7197]
[2]
  inhibitory activity against CDK8 and CDK19 (CDK8/19): unique to ALK5iII
[5]; [14]
  proportion of CHGA-positive and PDX1-positive cells: equivalent to the control
  proportion of insulin-positive and NKX6.1-positive cells: equivalent to the control
